One test has as its target Carbonic anhydrase 1 (Homo sapiens, UniProt P00915).
The target in test [1] is Carbonic anhydrase 5A, mitochondrial (Homo sapiens, UniProt P35218).
In test [2] the target is Carbonic anhydrase 5B, mitochondrial (Homo sapiens, UniProt Q9Y2D0).
The next test has as its target Carbonic anhydrase 2 (Homo sapiens, UniProt P00918).

Chain of Carbonic anhydrase 5B, mitochondrial (Q9Y2D0 whole entry): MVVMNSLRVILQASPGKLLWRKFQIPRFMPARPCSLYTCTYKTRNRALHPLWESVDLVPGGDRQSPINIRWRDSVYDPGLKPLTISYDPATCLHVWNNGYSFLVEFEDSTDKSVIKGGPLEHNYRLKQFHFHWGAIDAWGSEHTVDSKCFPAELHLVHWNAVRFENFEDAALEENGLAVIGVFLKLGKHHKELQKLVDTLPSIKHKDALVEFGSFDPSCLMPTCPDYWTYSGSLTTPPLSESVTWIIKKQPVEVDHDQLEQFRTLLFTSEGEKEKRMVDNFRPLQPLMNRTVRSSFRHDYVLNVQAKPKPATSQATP
Chain of Carbonic anhydrase 5A, mitochondrial (P35218 whole entry): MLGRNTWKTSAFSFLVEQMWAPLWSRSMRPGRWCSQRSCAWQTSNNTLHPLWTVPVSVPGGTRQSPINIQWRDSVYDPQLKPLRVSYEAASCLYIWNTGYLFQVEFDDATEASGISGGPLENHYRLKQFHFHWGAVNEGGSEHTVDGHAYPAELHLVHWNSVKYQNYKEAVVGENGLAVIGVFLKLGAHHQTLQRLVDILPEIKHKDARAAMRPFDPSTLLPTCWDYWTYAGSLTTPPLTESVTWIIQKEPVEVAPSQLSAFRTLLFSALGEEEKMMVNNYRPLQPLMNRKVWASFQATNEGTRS
Chain of Carbonic anhydrase 1 (P00915 whole entry): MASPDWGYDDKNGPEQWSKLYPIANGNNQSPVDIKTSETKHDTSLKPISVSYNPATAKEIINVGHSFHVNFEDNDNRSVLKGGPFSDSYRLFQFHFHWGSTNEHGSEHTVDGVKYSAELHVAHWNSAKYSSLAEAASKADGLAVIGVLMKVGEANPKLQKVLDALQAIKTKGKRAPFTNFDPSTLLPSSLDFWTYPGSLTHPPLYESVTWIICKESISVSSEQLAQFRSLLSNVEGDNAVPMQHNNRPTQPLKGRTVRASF

On to `Cc1ccc(-c2cn(-c3ccc(S(N)(=O)=O)cc3)nn2)cc1`, for which the Ki (as a rule, the equilibrium dissociation constant of an inhibitor or competing ligand from its target) at Carbonic anhydrase 1 was determined as 2100 nM; in test [1], 12.8 nM; in test [2], 10.6 nM.
Regarding `COc1ccc(-c2cn(-c3ccc(S(N)(=O)=O)cc3)nn2)cc1`, the Ki on Carbonic anhydrase 1 was 2200 nM; at Carbonic anhydrase 2, 8.4 nM; in test [1], 10.6 nM; in test [2] it was 51.8 nM.
For `NS(=O)(=O)c1ccc(-n2cc(-c3ccccc3)nn2)cc1`, the Ki on Carbonic anhydrase 1 came to 5100 nM; in test [1], 17.8 nM; in test [2], 10.6 nM.
Consider `NS(=O)(=O)c1ccc(-n2cc(-c3ccc(F)cc3)nn2)cc1`, for which the Ki at Carbonic anhydrase 1 turned out to be 4600 nM; at Carbonic anhydrase 2 it was 40.3 nM; in test [1] it was 14.2 nM; in test [2], 11.2 nM.

The values above are taken from ChEMBL document CHEMBL1155919, “Inhibition of human mitochondrial carbonic anhydrases VA and VB with para-(4-phenyltriazole-1-yl)-benzenesulfonamide derivatives” (Bioorg Med Chem Lett, 2008).
